The record followed here is US8901133B2, “Heterocyclic compounds and uses thereof” (Infinity Pharmaceuticals, Inc., priority 2010, dated 2014).

Type in all cases: biochemical
The target of one test is T1, PI3Kδ (Homo sapiens, UniProt O00329).
T1 construct: purchased Millipore Corporation 14-604-K
Kind of test: PI3 Kinase HTRF assay, PI3Kδ. The conditions noted are these: 10 μM PIP2, 10 μM ATP; read-out: PI3K δ IC50. The source says:
(§1) A PI3 Kinase HTRF® assay kit (cat No. 33-016) purchased from Millipore Corporation was used to screen compounds disclosed herein. This assay used specific, high affinity binding of the GRP1 pleckstrin homology (PH) domain to PIP3, the product of a Class 1A or 1B PI3 Kinase acting on its physiological substrate PIP2. During the detection phase of the assay, a complex was generated between the GST-tagged PH domain and biotinylated short chain PIP3. The biotinylated PIP3 and the GST-tagged PH domain recruited fluorophores (Streptavidin-Allophycocyanin and Europium-labeled anti-GST respectively) to form the fluorescence resonance energy transfer (FRET) architecture, generating a stable time-resolved FRET signal. The FRET complex was disrupted in a competitive manner by non-biotinylated PIP3, a product formed in the PI3 Kinase assay.
(§2) PI3 Kinase α, β, γ and δ activity was assayed using the PI3 Kinase HTRF® assay kit (catalogue No. 33-016) purchased from Millipore Corporation. Purified recombinant PI3Kα (catalogue No. 14-602-K), PI3Kβ (catalogue No. 14-603-K), PI3Kγ (catalogue No. 14-558-K) and PI3Kδ (catalogue No. 14-604-K) were obtained from Millipore Corporation. Purified recombinant PI3K enzyme was used to catalyze the phosphorylation of phosphatidylinositol 4,5-bisphosphate (PIP2 at 10 μM) to phosphatidylinositol 3,4,5-trisphosphate (PIP3) in the presence of 10 μM ATP. The assay was carried out in 384-well format and detected using a Perkin Elmer En Vision Xcite Multilabel Reader. Emission ratios were converted into percent inhibitions and imported into GraphPad Prism software. The concentration necessary to achieve inhibition of enzyme activity by 50% (IC50) was calculated using concentrations ranging from 20 μM to 0.1 nM (12-point curve). IC50 values were determined using a nonlinear regression model available in GraphPad Prism 5. […]

A further test concerns the target T2, PI3Kβ (Homo sapiens, UniProt P42338).
T2 construct: purchased Millipore Corporation 14-603-K
Nature of the test: PI3 Kinase HTRF assay, PI3Kβ. The conditions noted are these: 10 μM PIP2, 10 μM ATP; read-out: PI3K β IC50.
Excerpt: as §1, §2
For orientation: TR-FRET usually uses a lanthanide donor and a delayed reading to cut background.

The target in the next test is T3, PI3Kγ (Homo sapiens, UniProt P48736).
T3 construct: purchased Millipore Corporation 14-558-K
T3 sequence (P48736 whole entry): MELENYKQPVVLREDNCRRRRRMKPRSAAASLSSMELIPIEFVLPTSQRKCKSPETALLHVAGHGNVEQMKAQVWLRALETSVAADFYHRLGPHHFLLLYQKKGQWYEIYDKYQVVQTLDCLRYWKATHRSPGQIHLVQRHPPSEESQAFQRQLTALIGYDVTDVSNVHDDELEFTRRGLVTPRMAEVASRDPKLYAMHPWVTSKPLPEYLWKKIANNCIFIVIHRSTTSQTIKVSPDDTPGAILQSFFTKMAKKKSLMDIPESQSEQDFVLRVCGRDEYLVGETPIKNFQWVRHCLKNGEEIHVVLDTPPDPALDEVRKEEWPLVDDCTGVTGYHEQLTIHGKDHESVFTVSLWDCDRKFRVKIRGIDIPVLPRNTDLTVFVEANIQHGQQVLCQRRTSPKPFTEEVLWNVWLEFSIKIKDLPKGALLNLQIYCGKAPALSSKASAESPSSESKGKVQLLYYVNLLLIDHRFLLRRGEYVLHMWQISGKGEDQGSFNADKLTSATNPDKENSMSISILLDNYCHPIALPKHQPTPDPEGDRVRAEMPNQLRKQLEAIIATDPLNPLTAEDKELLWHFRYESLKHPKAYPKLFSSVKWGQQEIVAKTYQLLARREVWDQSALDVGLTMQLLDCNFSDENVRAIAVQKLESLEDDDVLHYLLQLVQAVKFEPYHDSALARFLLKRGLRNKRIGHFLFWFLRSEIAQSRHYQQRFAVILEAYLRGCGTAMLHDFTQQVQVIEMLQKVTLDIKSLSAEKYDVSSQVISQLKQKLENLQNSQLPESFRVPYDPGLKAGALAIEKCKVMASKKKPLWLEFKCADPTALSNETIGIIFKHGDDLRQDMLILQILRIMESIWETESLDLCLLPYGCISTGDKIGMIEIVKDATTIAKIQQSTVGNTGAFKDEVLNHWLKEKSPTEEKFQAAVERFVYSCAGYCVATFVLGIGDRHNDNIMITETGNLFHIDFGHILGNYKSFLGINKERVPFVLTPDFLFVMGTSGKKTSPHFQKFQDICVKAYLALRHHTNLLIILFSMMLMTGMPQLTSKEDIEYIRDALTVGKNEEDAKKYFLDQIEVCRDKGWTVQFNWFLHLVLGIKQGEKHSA
Kind of test: PI3 Kinase HTRF assay, PI3Kγ. The following applies: 10 μM PIP2, 10 μM ATP; read-out: PI3K γ IC50.
Excerpt: as §1, §2

In a further test the target is T4, PI3Kα (Homo sapiens, UniProt P42336).
T4 construct: purchased Millipore Corporation 14-602-K
T4 sequence (P42336 whole entry): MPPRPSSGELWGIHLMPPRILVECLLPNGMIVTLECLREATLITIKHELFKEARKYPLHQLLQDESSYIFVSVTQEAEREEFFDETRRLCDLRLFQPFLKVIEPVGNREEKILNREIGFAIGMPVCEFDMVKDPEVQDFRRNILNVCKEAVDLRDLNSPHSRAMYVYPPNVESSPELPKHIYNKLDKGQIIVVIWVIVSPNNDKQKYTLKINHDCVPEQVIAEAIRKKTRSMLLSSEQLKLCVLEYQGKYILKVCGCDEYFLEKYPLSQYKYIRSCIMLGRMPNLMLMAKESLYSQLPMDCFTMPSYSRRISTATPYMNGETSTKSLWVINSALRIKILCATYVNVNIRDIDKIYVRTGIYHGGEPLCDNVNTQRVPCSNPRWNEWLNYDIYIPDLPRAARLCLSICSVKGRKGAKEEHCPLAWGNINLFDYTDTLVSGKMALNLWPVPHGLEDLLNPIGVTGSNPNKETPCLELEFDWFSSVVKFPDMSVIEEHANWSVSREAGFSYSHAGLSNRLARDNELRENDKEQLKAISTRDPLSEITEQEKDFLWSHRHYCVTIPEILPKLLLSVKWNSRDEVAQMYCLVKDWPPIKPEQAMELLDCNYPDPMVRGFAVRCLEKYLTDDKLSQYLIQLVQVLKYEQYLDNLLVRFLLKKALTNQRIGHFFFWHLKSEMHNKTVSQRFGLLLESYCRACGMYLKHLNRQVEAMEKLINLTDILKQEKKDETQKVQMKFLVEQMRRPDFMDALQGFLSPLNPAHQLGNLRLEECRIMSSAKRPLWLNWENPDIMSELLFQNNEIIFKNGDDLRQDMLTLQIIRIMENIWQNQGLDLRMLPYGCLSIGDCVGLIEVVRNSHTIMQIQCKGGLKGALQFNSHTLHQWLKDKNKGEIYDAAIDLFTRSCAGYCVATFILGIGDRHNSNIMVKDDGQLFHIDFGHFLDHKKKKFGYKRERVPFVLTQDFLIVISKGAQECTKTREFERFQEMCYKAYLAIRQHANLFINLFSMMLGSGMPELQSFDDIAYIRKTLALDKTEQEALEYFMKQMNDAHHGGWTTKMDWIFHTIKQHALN
T4 sequence (P27986 whole entry partner): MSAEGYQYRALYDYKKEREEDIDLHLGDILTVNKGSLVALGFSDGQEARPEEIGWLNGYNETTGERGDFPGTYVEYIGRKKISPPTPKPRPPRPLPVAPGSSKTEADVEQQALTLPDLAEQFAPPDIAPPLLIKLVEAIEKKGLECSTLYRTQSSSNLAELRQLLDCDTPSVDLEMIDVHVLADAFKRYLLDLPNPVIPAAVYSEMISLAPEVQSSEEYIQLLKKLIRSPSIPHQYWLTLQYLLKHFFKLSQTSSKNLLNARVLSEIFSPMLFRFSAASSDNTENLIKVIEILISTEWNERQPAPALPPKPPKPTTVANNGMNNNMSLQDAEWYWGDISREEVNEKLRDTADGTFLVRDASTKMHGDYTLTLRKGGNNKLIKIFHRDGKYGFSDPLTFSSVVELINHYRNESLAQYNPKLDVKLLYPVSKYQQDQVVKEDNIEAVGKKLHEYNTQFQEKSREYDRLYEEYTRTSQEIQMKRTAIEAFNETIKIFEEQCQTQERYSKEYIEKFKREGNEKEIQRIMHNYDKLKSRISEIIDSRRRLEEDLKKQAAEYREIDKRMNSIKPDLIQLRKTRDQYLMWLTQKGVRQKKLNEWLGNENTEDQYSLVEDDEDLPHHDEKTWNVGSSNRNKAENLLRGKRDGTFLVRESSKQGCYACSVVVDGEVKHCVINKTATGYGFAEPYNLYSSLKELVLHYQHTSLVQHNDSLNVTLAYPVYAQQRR
Kind of test: PI3 Kinase HTRF assay, PI3Kα. The following applies: 10 μM PIP2, 10 μM ATP; read-out: PI3K α IC50.
Excerpt: as §1, §2

T2 sequence (P42338 whole entry): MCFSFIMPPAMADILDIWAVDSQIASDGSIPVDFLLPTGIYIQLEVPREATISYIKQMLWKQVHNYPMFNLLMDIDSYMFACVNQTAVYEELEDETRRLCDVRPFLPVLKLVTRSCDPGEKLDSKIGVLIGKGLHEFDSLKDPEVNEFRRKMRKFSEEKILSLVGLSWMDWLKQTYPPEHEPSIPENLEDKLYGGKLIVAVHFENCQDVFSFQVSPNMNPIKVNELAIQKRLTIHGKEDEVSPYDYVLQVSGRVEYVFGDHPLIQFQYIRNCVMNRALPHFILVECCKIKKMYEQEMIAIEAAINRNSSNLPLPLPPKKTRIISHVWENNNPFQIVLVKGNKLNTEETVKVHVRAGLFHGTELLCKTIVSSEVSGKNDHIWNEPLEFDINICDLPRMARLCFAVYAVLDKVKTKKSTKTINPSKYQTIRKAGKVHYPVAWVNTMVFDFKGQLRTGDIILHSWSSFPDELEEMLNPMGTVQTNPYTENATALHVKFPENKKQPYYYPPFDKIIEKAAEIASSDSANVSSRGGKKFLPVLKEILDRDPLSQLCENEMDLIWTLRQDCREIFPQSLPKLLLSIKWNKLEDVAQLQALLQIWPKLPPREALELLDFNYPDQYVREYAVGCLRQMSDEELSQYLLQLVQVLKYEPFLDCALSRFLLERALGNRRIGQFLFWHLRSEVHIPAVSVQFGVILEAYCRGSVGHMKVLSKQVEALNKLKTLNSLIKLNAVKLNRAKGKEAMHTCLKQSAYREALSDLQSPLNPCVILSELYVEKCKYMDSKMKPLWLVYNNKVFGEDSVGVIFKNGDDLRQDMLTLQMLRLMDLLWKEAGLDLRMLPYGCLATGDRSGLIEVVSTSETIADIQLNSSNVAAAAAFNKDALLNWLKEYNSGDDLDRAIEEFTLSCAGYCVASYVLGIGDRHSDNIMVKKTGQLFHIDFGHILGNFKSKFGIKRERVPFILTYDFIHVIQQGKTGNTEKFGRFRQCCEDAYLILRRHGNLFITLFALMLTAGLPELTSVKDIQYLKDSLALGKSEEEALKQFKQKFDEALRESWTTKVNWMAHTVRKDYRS
T2 sequence (P27986 whole entry partner): as the sequence (P27986 whole entry partner) above
T1 sequence (O00329 whole entry): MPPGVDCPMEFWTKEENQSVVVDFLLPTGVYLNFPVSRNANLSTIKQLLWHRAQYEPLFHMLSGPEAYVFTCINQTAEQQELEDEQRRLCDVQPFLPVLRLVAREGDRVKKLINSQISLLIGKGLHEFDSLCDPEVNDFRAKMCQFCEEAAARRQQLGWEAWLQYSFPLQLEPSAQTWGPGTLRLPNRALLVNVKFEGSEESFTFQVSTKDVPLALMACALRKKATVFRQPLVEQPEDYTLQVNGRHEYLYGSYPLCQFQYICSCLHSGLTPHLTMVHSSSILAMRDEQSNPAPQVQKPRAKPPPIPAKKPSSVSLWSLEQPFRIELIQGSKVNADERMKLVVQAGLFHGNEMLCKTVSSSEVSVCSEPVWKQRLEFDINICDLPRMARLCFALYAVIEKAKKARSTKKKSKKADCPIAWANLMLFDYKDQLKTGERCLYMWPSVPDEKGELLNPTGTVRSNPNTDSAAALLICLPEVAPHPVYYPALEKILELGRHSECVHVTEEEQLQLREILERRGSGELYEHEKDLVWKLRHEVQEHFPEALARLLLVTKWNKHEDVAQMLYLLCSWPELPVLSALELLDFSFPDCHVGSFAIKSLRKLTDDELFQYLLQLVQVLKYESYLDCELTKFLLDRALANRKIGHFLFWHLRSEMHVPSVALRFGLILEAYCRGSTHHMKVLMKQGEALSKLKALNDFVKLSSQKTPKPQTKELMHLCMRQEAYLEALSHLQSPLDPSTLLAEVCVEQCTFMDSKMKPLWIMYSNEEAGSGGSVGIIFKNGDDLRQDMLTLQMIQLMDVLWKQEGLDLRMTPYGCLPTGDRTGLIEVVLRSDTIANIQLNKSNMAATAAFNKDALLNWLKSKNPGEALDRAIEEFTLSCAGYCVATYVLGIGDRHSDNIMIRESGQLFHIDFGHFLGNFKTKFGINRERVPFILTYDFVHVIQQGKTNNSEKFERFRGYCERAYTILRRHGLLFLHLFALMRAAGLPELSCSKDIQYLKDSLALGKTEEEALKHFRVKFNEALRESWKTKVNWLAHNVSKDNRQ
T1 sequence (P27986 whole entry partner): as the sequence (P27986 whole entry partner) above

By IC50 is commonly meant the point on the concentration scale where inhibition reaches its midpoint. As for `C[C@H](Nc1ncnc2[nH]cnc12)c1cc2cccc(Cl)c2c(CN2CCC2)n1` [Compound 9], the IC50 at PI3Kδ was < 1 µM; on PI3Kβ, < 10 µM; at PI3Kγ, < 10 µM; at PI3Kα, > 10 µM.
For `C[C@H](Nc1ncnc2[nH]cnc12)c1cc2cccc(Cl)c2c(C(=O)N2CC(O)C2)n1` [Compound 22], the concentration for half-maximal inhibition (IC50) at PI3Kδ is < 0.1 µM; on PI3Kβ, < 10 µM; at PI3Kγ, < 1 µM; on PI3Kα it was > 10 µM.
As to `C[C@H](Nc1ncnc2[nH]cnc12)c1cc2cccc(Cl)c2c(C(=O)N(C)c2ccccc2)n1` [Compound 27], the IC50 was < 1 µM at PI3Kδ, > 10 µM on PI3Kβ, < 10 µM on PI3Kγ and > 10 µM at PI3Kα.
`C[C@H](Nc1ncnc2[nH]cnc12)c1cc2cccc(Cl)c2c(C(=O)N2CCC(O)CC2)n1` [Compound 28]: the concentration for half-maximal inhibition (IC50) is < 0.1 µM at PI3Kδ, > 10 µM on PI3Kβ, < 1 µM on PI3Kγ and > 10 µM on PI3Kα.
Take `Cc1nc(-c2nc([C@H](C)Nc3ncnc4[nH]cnc34)cc3cccc(Cl)c23)no1` [Compound 32]: the IC50 at PI3Kδ is < 1 µM; on PI3Kβ, < 10 µM; at PI3Kγ, < 10 µM; at PI3Kα it was > 10 µM.
Consider `C[C@H](Nc1ncnc2[nH]cnc12)c1cc2cccc(Cl)c2c(CC(=O)N2CCOCC2)n1` [Compound 35], for which the IC50 at PI3Kδ is < 1 µM; at PI3Kβ, > 10 µM; on PI3Kγ it was < 10 µM; at PI3Kα, > 10 µM.
`C[C@H](Nc1ncnc2[nH]cnc12)c1cc2cccc(Cl)c2c(C(=O)NC2CCOCC2)n1` [Compound 48]: the IC50 on PI3Kδ is < 0.1 µM; at PI3Kβ, > 10 µM; on PI3Kγ, < 10 µM; on PI3Kα, > 10 µM.
As for `C[C@H](Nc1ncnc2[nH]cnc12)c1cc2cc(F)ccc2c(CCN2CCOCC2)n1` [Compound 55], the concentration for half-maximal inhibition (IC50) on PI3Kδ is < 1 µM; on PI3Kβ, > 10 µM; at PI3Kγ it was > 10 µM; at PI3Kα, > 10 µM.
Turning to `C[C@H](Nc1ncnc2[nH]cnc12)c1cc2cccc(Cl)c2c(C(=O)NC2CCC(O)CC2)n1` (stereo partly shown) [Compound 58], the IC50 at PI3Kδ was < 0.1 µM; at PI3Kβ, > 10 µM; at PI3Kγ, < 10 µM; on PI3Kα, > 10 µM.
With `C[C@H](Nc1ncnc2scnc12)c1cc2cccc(Cl)c2c(CCN2CCOCC2)n1` [Compound 72, (S)—N-(1-(8-chloro-1-(2-morpholinoethyl)isoquinolin-3-yl)ethyl)thiazolo[5,4-d]pyrimidin-7-amine], the IC50 at PI3Kδ is < 0.1 µM; at PI3Kβ it was < 1 µM; at PI3Kγ, < 10 µM; on PI3Kα, < 10 µM.
In the case of `C[C@H](Nc1cc(Cl)nn2ccnc12)c1cc2cccc(Cl)c2c(CCN2CCOCC2)n1` [Compound 76, (S)-6-chloro-N-(1-(8-chloro-1-(2-morpholinoethyl)isoquinolin-3-yl)ethyl)imidazo[1,2-b]pyridazin-8-amine], the IC50 on PI3Kδ was < 10 µM; on PI3Kβ, > 10 µM; at PI3Kγ, > 10 µM; on PI3Kα, > 10 µM.
For `C[C@H](Nc1cc(Cl)nn2ccnc12)c1cc2ccccc2c(CCN2CCOCC2)n1` [Compound 78], the IC50 at PI3Kδ was < 10 µM; on PI3Kβ it was > 10 µM; at PI3Kγ it was > 10 µM; on PI3Kα, > 10 µM.
For `C[C@H](Nc1ncnc2[nH]cnc12)c1nc(CCN2CCOCC2)c2ccccc2c1F` [Compound 87], the IC50 at PI3Kδ was < 1 µM; on PI3Kβ it was > 10 µM; on PI3Kγ it was > 10 µM; on PI3Kα, > 10 µM.
Turning to `C[C@H](Nc1ncnc2[nH]cnc12)c1cc2cccc(Cl)c2c(OCC(C)(C)O)n1` [Compound 88], the IC50 is < 1 µM at PI3Kδ, < 10 µM on PI3Kβ, < 10 µM on PI3Kγ and < 10 µM at PI3Kα.
Regarding `C[C@H](NC(=O)c1nccnc1N)c1cc2cccc(Cl)c2c(CCN2CCOCC2)n1` [Compound 89, (S)-3-amino-N-(1-(8-chloro-1-(2-morpholinoethyl)isoquinolin-3-yl)ethyl)pyrazine-2-carboxamide], the IC50 on PI3Kδ is < 1 µM; on PI3Kβ, < 10 µM; on PI3Kγ, < 10 µM; on PI3Kα it was > 10 µM.
For `C[C@H](Nc1ncnc2[nH]cnc12)c1cc2cccc(Cl)c2c(SCC[N+]2([O-])CCOCC2)n1` [Compound 94], the IC50 at PI3Kδ is < 0.1 µM; at PI3Kβ, < 10 µM; at PI3Kγ, < 1 µM; on PI3Kα, < 10 µM.
In the case of `C[C@H](Nc1ncnc2cccnc12)c1cc2cccc(Cl)c2c(N2CCN(C)CC2)n1` [Compound 96], the IC50 on PI3Kδ was < 0.1 µM; at PI3Kβ, < 1 µM; on PI3Kγ, < 0.1 µM; at PI3Kα, < 1 µM.
Regarding `C[C@H](Nc1ccnc2ccnn12)c1cc2cccc(Cl)c2c(N2CCN(C)CC2)n1` [Compound 97], the 50% inhibitory concentration (IC50) at PI3Kδ is < 0.1 µM; at PI3Kβ, < 10 µM; at PI3Kγ, > 10 µM; on PI3Kα, > 10 µM.
For `C[C@H](Nc1ncnc2[nH]cnc12)c1cc2cccc(F)c2c(N2CCN(C)CC2)n1` [Compound 100], the IC50 on PI3Kδ was < 0.1 µM; on PI3Kβ, > 10 µM; at PI3Kγ, > 10 µM; on PI3Kα, > 10 µM.
Take `C[C@H](Nc1ncnc2cccnc12)c1cc2cccc(Cl)c2c(OCCN2CCCC2)n1` [Compound 105]: the half-maximal inhibitory concentration (IC50) on PI3Kδ was < 0.1 µM; on PI3Kβ it was < 10 µM; at PI3Kγ, < 1 µM; on PI3Kα, < 1 µM.
As to `C[C@H](Nc1ccnc2ccnn12)c1cc2cccc(Cl)c2c(OCCN2CCCC2)n1` [Compound 106], the half-maximal inhibitory concentration (IC50) was < 0.1 µM at PI3Kδ, < 10 µM on PI3Kβ, < 10 µM at PI3Kγ and > 10 µM on PI3Kα.
For the molecule `Cc1cccc2cc([C@H](C)Nc3ncnc4[nH]cnc34)nc(N3CCN(C)CC3)c12` [Compound 109], the IC50 at PI3Kδ is < 0.1 µM; at PI3Kβ it was < 10 µM; on PI3Kγ, < 10 µM; at PI3Kα, > 10 µM.
As for `C[C@H](Nc1ncnc2[nH]cnc12)c1cc2cccc(C(F)(F)F)c2c(N2CCN(C)CC2)n1` [Compound 111], the half-maximal inhibitory concentration (IC50) on PI3Kδ was < 1 µM; on PI3Kβ, < 10 µM; on PI3Kγ, < 10 µM; on PI3Kα it was > 10 µM.
Turning to `C[C@H](Nc1ncnc2cccnc12)c1cc2cccc(Cl)c2c(C(=O)N2CCOCC2)n1` [Compound 115], the half-inhibitory concentration (IC50) at PI3Kδ was < 0.1 µM; at PI3Kβ, < 10 µM; on PI3Kγ it was < 1 µM; at PI3Kα it was < 10 µM.
With `C[C@H](NC(=O)c1cnc2cccnn12)c1cc2cccc(Cl)c2c(C(=O)N2CCOCC2)n1` [Compound 117], the concentration for half-maximal inhibition (IC50) was < 1 µM on PI3Kδ, < 10 µM on PI3Kβ, < 10 µM on PI3Kγ and > 10 µM at PI3Kα.
Regarding `C[C@H](NC(=O)c1nccnc1N)c1cc2cccc(Cl)c2c(C(=O)N2CCOCC2)n1` [Compound 118], the IC50 at PI3Kδ was < 1 µM; on PI3Kβ, < 10 µM; at PI3Kγ it was < 10 µM; on PI3Kα, > 10 µM.
Take `C[C@H](Nc1ncnc2[nH]cnc12)c1cc2cccc(Cl)c2c(C(=O)N(C)C2CCOCC2)n1` [Compound 126]: the 50% inhibitory concentration (IC50) at PI3Kδ was < 1 µM; at PI3Kβ it was > 10 µM; at PI3Kγ, < 10 µM; at PI3Kα it was > 10 µM.
For `C[C@H](Nc1ncnc2[nH]cnc12)c1cc2cccc(Cl)c2c(OCC(=O)O)n1` [Compound 128, (S)-2-(3-(1-(9H-purin-6-ylamino)ethyl)-8-chloroisoquinolin-1-yloxy)acetic acid], the IC50 at PI3Kδ is < 10 µM; on PI3Kβ, > 10 µM; at PI3Kγ it was < 1 µM; on PI3Kα, > 10 µM.
Consider `C[C@H](Nc1nc(N)ncc1C(F)(F)F)c1cc2cccc(Cl)c2c(CCN2CCOCC2)n1` [Compound 130], for which the IC50 is < 0.1 µM on PI3Kδ, < 10 µM on PI3Kβ, < 10 µM at PI3Kγ and > 10 µM at PI3Kα.
Consider `C[C@H](Nc1ncnc2cccnc12)c1cc2cccc(Cl)c2c(C(=O)N2CCOC[C@H]2C)n1` [Compound 251], for which the IC50 at PI3Kγ is < 1 µM.
On the same count and under the same terms, the same measure for `C[C@H](Nc1ncnc2scnc12)c1cc2cccc(Cl)c2c(C(=O)N2CCOC[C@H]2C)n1` [Compound 252]: < 10 µM.
